Tests used:
[1] = molecular target: T1, γ-glutamyltranspeptidase (GGT) (Homo sapiens, UniProt P19440); conditions: read-out: Km constant (Michaelis-Menten kinetic constant) of GGT; substance as substrate of GGT; cited from earlier work
[2] = molecular target: T1, γ-glutamyltranspeptidase (GGT); assay: Decomposition kinetics of GSNO, absorbance at 334 nm (FIG. 1); format: biochemical
Description: GSNO has a absorption band at 334 nm. […] In FIG. 1 in particular, the decomposition kinetics is shown of 50 uM GSNO with GGT 525 mU/mL added at the time t=0. In ordinates the absorbance at 334 nm is shown. […]
At the addition of GGT 525 mU/mL the decrease is observed of the absorbance at 334 nm that indicates the decomposition of GSNO (curve a of FIG. 1). GSNO is quantitatively decomposed, in the adopted operative conditions, in 450 sec.

[3] = blood; cited from earlier work

T1 sequence (P19440 whole entry, species assumed): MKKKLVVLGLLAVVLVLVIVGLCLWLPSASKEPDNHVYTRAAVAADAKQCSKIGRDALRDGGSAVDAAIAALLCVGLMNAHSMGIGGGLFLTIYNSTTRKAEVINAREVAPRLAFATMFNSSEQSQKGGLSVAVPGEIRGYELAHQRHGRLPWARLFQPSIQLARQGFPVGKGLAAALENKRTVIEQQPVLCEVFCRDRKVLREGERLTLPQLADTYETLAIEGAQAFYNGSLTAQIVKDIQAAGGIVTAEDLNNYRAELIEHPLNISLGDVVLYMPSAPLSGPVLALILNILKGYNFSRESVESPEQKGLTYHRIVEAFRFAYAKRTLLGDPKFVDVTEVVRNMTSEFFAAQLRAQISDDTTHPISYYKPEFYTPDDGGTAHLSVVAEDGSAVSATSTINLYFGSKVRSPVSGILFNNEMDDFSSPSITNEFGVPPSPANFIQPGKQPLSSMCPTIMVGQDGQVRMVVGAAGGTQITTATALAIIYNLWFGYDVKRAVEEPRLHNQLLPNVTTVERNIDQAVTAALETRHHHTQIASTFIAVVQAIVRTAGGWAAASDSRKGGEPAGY

Row | Compound | Km [1] | time for quantitative decomposition of GSNO ([2]; 50 uM GSNO, GGT 525 mU/mL, phosphate buffer 0.1 M pH 8.0, GlyGly 4.5 mM, Cu(SO4) 100 uM (curve a)) | change of absorbance at 334 nm ([2]; adding only 50 uM of CuSO4 (curve b)) | half life in the hematic area [3]
1 | N[C@@H](CCC(=O)N[C@@H](CS)C(=O)NCC(=O)O)C(=O)O [GSH, reduced glutathione] | 5 to 10 µM |  |  | 
2 | N[C@@H](CCC(=O)N[C@@H](CSN=O)C(=O)NCC(=O)O)C(=O)O [GSNO, S-nitrosoglutathione] | 28 µM | 450 s | no decrease is observed | 
3 | [N]=O [NO, Nitric oxide] |  |  |  | about 2 ms

Source: US8148099B2, “Process for determining S-nitrosothiols in biological fluids” (Universita' Di Pisa, priority 2006, dated 2012)
